Values quoted from earlier work, collected in patent publication US9993449B2, “(S)-3-amino-4-(difluoromethylenyl)cyclopent-1-ene-1-carboxylic acid, and related compounds as GABA aminotransferase inactivators for the treatment of epilepsy, addiction and hepatocellular carcinoma” (NORTHWESTERN UNIVERSITY, priority 2015, dated 2018).

Columns and labels:
[1] = system: alanine aminotransferase (Ala-AT); details: reported; cited from earlier work
CYP2B6 = target: T1, CYP2B6 (Homo sapiens, UniProt P20813); details: earlier finding for CPP-115; cited from earlier work
T1 construct: tissue Eurofins Panlabs; host or cells: human liver microsomes
T1 sequence (P20813 1-491): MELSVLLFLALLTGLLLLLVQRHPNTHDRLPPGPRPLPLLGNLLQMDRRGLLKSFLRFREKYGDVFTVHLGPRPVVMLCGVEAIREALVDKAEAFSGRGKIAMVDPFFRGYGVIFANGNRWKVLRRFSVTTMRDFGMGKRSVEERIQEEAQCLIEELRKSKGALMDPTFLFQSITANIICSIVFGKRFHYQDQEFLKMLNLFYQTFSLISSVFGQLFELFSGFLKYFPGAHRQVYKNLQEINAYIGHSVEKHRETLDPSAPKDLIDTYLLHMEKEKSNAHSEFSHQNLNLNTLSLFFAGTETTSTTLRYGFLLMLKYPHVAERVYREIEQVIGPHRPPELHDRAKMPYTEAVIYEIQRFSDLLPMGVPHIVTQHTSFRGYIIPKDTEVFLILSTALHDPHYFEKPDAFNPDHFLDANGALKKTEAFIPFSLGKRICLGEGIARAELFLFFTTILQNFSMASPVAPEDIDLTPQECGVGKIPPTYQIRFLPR

CYP2D6 = target: T2, CYP2D6 (Homo sapiens, UniProt P10635); details: earlier finding for CPP-115; cited from earlier work
T2 construct: tissue Eurofins Panlabs; host or cells: human liver microsomes

[2] = target: T3, ornithine aminotransferase (OAT) (Homo sapiens, UniProt P04181); details: reported; cited from earlier work
T3 sequence (P04181 26-439): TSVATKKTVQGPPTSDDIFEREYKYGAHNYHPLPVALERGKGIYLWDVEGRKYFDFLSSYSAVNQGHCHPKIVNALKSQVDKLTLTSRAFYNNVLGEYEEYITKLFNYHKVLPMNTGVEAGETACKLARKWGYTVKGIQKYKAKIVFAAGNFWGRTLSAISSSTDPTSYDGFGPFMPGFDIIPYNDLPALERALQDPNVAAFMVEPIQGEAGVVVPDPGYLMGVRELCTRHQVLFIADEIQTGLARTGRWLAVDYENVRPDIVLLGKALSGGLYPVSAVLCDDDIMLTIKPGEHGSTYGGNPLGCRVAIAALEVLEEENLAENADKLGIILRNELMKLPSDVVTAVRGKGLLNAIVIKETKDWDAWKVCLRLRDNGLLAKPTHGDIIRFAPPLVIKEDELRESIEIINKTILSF

CYP2C9 = target: T4, CYP2C9 (Homo sapiens, UniProt P11712); details: earlier finding for CPP-115; cited from earlier work
T4 construct: tissue Eurofins Panlabs; host or cells: human liver microsomes

[3] = system: aspartate aminotransferase (Asp-AT); details: reported; cited from earlier work
infantile spasms = details: multiple-hit rat model; cited from earlier work
[4] = in vivo; cited from earlier work
CYP3A = details: earlier finding for CPP-115; cited from earlier work
striatal dopamine levels = details: previous similar tests; cited from earlier work
CYP2C8 = target: T5, CYP2C8 (Homo sapiens, UniProt P10632); details: earlier finding for CPP-115; cited from earlier work
T5 construct: tissue Eurofins Panlabs; host or cells: human liver microsomes
T5 sequence (P10632 1-490): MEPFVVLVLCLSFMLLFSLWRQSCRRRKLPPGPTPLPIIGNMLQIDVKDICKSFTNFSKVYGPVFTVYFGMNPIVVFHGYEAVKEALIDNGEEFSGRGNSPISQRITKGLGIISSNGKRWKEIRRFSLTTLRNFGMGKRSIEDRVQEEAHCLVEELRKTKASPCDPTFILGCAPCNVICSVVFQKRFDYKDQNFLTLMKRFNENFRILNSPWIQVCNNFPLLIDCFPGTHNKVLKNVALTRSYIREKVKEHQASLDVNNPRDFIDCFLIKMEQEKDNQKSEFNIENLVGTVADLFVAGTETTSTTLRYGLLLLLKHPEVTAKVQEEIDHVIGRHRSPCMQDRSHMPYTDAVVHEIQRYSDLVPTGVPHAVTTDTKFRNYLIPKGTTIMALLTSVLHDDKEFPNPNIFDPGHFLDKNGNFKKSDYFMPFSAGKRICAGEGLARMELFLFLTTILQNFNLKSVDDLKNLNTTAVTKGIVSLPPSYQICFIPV

CYP1A = target: T6, CYP1A (Homo sapiens, UniProt P05177); details: earlier finding for CPP-115; cited from earlier work
T6 construct: tissue Eurofins Panlabs; host or cells: human liver microsomes
T6 sequence (P05177 1-516): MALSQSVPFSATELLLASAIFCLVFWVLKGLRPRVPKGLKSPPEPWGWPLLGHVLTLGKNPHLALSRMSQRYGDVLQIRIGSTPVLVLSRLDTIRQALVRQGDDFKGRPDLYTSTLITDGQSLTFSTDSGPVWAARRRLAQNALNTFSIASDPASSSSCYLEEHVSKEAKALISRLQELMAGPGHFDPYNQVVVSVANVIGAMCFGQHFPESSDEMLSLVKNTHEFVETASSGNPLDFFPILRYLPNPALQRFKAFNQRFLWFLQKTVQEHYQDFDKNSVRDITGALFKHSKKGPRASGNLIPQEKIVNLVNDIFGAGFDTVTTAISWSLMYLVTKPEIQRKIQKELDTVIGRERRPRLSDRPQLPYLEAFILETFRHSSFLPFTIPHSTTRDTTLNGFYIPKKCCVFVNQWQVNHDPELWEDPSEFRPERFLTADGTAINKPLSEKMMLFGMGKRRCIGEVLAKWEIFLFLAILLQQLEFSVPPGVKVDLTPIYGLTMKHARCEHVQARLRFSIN

hERG channel = target: T7, hERG channel (Homo sapiens, UniProt Q12809); details: earlier finding for CPP-115; cited from earlier work
T7 construct: host or cells: CHO-K1

CYP2C19 = target: T8, CYP2C19 (Homo sapiens, UniProt P33261); details: earlier finding for CPP-115; cited from earlier work
T8 construct: tissue Eurofins Panlabs; host or cells: human liver microsomes

[5] = system: release of dopamine in the NAcc; details: freely moving rats after 20 mg/kg cocaine; cited from earlier work
[6] = system: glucose metabolism in the hippocampus; details: previous similar tests; cited from earlier work
[7] = long-term administration; cited from earlier work
cocaine addiction = cocaine addiction in humans, 9-week double-blind trial; cited from earlier work
addiction = details: cocaine, nicotine, methamphetamine, heroin, and alcohol; cited from earlier work

T8 sequence (P33261 whole entry): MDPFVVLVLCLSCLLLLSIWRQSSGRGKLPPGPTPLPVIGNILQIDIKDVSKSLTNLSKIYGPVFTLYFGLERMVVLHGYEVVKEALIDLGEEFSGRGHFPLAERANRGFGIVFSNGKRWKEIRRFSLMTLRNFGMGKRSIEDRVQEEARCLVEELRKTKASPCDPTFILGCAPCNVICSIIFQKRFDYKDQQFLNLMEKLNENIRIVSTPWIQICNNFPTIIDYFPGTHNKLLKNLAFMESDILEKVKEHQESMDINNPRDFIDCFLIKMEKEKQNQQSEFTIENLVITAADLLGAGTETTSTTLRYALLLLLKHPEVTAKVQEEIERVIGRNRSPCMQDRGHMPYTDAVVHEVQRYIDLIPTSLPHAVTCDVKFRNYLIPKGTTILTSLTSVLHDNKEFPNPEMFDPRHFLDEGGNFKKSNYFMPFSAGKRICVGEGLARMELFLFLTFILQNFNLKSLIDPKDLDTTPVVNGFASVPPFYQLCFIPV
T4 sequence (P11712 whole entry): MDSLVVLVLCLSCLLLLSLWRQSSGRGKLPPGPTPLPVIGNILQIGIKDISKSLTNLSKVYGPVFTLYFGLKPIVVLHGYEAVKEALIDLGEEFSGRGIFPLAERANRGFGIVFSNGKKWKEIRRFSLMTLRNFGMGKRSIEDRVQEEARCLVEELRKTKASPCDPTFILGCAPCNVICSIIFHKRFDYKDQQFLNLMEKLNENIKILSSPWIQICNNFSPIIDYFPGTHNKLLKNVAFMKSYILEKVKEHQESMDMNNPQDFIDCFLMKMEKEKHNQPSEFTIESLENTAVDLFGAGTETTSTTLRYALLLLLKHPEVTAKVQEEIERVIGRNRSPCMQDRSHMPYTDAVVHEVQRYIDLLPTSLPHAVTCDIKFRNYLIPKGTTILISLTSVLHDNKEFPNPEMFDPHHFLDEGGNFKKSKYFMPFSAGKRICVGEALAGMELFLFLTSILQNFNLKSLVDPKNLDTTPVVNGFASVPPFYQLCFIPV
T2 sequence (P10635 whole entry): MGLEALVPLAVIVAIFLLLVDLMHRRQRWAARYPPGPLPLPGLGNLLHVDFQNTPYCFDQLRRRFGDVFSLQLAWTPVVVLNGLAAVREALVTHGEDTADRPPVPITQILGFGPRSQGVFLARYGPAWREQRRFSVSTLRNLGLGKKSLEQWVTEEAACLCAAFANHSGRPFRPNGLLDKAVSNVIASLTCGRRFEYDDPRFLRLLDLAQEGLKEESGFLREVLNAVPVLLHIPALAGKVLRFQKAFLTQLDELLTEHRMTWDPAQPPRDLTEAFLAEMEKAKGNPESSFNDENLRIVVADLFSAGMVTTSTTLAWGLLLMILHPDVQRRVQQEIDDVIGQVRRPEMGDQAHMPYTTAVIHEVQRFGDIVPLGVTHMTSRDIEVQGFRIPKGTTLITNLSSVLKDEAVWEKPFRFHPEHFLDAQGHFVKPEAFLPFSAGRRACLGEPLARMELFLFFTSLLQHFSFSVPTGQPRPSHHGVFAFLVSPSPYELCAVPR
T7 sequence (Q12809 whole entry): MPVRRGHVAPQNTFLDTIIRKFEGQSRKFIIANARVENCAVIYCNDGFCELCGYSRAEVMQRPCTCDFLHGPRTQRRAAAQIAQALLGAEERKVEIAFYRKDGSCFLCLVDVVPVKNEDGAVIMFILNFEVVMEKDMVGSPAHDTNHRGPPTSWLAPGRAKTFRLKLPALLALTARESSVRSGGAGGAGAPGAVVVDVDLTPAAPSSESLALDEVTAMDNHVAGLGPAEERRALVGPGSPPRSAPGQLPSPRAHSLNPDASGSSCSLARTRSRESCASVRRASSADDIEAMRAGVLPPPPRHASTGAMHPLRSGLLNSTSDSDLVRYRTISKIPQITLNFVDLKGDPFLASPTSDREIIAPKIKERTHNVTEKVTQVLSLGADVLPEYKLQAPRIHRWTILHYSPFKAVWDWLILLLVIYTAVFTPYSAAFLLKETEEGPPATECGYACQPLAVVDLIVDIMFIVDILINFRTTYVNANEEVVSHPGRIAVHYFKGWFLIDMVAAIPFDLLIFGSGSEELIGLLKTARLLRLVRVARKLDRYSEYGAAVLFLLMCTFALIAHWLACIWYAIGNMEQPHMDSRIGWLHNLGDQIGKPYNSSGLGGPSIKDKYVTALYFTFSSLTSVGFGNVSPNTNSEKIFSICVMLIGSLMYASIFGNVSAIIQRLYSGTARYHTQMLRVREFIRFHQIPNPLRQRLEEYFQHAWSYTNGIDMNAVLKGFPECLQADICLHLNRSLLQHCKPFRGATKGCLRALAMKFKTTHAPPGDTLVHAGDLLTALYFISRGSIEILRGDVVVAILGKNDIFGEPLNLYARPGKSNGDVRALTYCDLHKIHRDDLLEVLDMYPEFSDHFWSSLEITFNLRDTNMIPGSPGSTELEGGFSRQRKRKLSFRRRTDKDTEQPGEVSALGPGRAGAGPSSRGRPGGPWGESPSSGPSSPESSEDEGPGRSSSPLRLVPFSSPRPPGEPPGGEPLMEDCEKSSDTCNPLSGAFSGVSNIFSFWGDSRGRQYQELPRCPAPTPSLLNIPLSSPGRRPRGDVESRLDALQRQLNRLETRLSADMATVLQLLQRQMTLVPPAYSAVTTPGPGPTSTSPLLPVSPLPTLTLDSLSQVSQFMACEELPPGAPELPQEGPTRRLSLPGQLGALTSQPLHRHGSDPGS

Compound	inactivation or inhibition of Ala-AT [1]	inhibition or induction of CYP 2B6 (CYP2B6)	inhibition or induction of CYP 2D6 (CYP2D6)	KI (inactivation) [2]	inhibition or induction of CYP 2C9 (CYP2C9)	inactivation or inhibition of Asp-AT [3]	duration of spasm suppression versus vigabatrin (infantile spasms)	margin of safety versus vigabatrin [4]	retinal toxicity liability versus vigabatrin [4]	inhibition or induction of CYP 3A (CYP3A)	cocaine-induced increases in striatal dopamine (striatal dopamine levels)	inhibition or induction of CYP 2C8 (CYP2C8)	inhibition or induction of CYP 1A (CYP1A)	inhibition of the activity of the hERG channel (hERG channel)	inhibition or induction of CYP 2C19 (CYP2C19)	times more potent than vigabatrin in reducing the release of dopamine in the NAcc [5]	hippocampal metabolism (cocaine-induced) [6]	epilepsy patients with permanent vision loss [7]	patients achieving abstinence (cocaine addiction)	treatment of addiction in animal models (addiction)
N[C@H]1C[C@@H](C(=O)O)CC1=C(F)F [CPP-115, (1S,3S)-3-amino-4-difluoromethylenyl-1-cyclopentanoic acid]	not to inactivate or inhibit	does not inhibit or induce	does not inhibit or induce	116 µM	does not inhibit or induce	not to inactivate or inhibit	longer spasm suppression	much larger	considerably lower	does not inhibit or induce	blocked	does not inhibit or induce	does not inhibit or induce	does not inhibit	does not inhibit or induce	> 300 times	did not completely block	–	–	–
C=CC(N)CCC(=O)O (stereo not shown) [vigabatrin]	–	–	–	–	–	–	–	–	–	–	blocked	–	–	–	–	–	did not completely block	25-40%	up to 28%	successful
